Consider one compound from ChEMBL document CHEMBL6153060, “Structure-Based Design of Novel TLR7/8 Agonist Payloads Enabling an Immunomodulatory Conjugate Approach” (ACS Med Chem Lett, 2025).

The nature of data set [1]: Metabolic stability in mouse liver microsomes assessed as compound remaining. It counts as ADME, Microsome. A general note: Liver microsomes are vesicles of endoplasmic reticulum, rich in cytochrome P450 enzymes.
The nature of data set [2]: Metabolic stability in human liver microsomes assessed as compound remaining after 30 mins. It counts as ADME, Microsome. The following applies: read-out: Stability.

Regarding `CCC[C@@H](CCO)Nc1nc(N)nc2c3ccccc3n(Cc3cc(CNC[C@@H]4CCOC4)ccc3OC)c12`, the Stability in data set [1] is reported as 1%. In data set [2], the remaining at 0.5 h was 4%.
